Values after ≈ are worked out from the molar mass of the structure shown.
Assays:
Water solubility = format: physicochemical; conditions: heading: Water solubility
[1] = Solubilization and gel formation of 2 wt% polychloroprene solution; format: physicochemical; conditions: 2% by weight of polymer, rest for 24 hours
Procedure: A polychloroprene solution was prepared in 2-methyl-2-ethyl-1,3-dioxolane at a concentration of 2% by weight of the polymer, which was allowed to rest for 24 hours. […] Gel formation usually takes place by using toluene or an aromatic hydrocarbon solvent, and was not expected in the case of oxygenated solvents, such as 2-methyl-2-ethyl-1,3-dioxolane.

rat [2] = conditions: cited from earlier work
rabbit [3] = conditions: cited from earlier work
rat [4] = conditions: 4 hours of exposure; cited from earlier work
rabbit [5] = conditions: 24 hours of exposure; cited from earlier work
rabbit [6] = conditions: 24 hours of exposure; cited from earlier work; remark: listed apart in the source
[7] = IARC, NTP, OSHA, ACGIH; cited from earlier work

## CCC1(C)OCCO1 [2-methyl-2-ethyl-1,3-dioxolane]
Water solubility
  solubility: 3260 µg/mL (≈ 28.1 mM)
[1]
  Gel formation: formation of a gel was seen
Rat [2]
  LD50 (oral rat): 2,830 μL/kg
Rabbit [3]
  DL50 (dermal rabbit): 10 mL/kg
Rat [4]
  LCLo/4 H (inhalation rat): 4,000 ppm/4 H
Rabbit [5]
  LCLo/24 H (skin rash - rabbit): 500 mg/24 H
Rabbit [6]
  LCLo/24H (eye irritation - rabbit): 500 mg/24 H
[7]
  Carcinogenicity listing: not listed as carcinogenic

From patent publication US9464215B2, “Use of a ketal as a solvent in adhesives and ketal-containing adhesive composition” (OXITENO S.A. INDÚSTRIA E COMÉRCIO, priority 2012, dated 2016)
